According to PubChem BioAssay (NCI):
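Test compounds were applied to cells in 96-well plates for 48 hours at 5 doses. At the GI50, growth is halved. Definition used: TGI = concentration required for complete inhibition of growth.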

How the values were obtained:
Assay in all cases: inhibition of tumour cell growth, NCI panel, 48 h
NCI/ADR-RES ovarian = tested on: NCI/ADR-RES ovarian
PC-3 prostate = tested on: PC-3 prostate
SK-OV-3 ovarian = tested on: SK-OV-3 ovarian
SF-295 CNS = tested on: SF-295 CNS
TK-10 renal = tested on: TK-10 renal
HOP-62 NSCLC = tested on: HOP-62 NSCLC
UACC-257 melanoma = tested on: UACC-257 melanoma
K-562 leukemia = tested on: K-562 leukemia
RXF 393 renal = tested on: RXF 393 renal
SR leukemia = tested on: SR leukemia

SMILES | GI50 (NCI/ADR-RES ovarian) | TGI (NCI/ADR-RES ovarian) | GI50 (PC-3 prostate) | TGI (PC-3 prostate) | GI50 (SK-OV-3 ovarian) | TGI (SK-OV-3 ovarian) | GI50 (SF-295 CNS) | TGI (SF-295 CNS) | GI50 (TK-10 renal) | TGI (TK-10 renal) | GI50 (HOP-62 NSCLC) | TGI (HOP-62 NSCLC) | GI50 (UACC-257 melanoma) | TGI (UACC-257 melanoma) | GI50 (K-562 leukemia) | TGI (K-562 leukemia) | GI50 (RXF 393 renal) | TGI (RXF 393 renal) | TGI (SR leukemia) | GI50 (SR leukemia)
Cc1cc(O)cc(C)c1/C=C/c1cncc(C(=O)OC(C)(C)C)c1 | 14.6 µM | > 25 µM | 10.4 µM | > 25 µM | 16.1 µM | > 25 µM | 19.8 µM | > 25 µM | > 23.5 µM | > 25 µM | > 19.4 µM | > 25 µM | 19.6 µM | > 25 µM | 11.6 µM | > 25 µM | 9.75 µM | > 25 µM |  | 
COc1cc(NC(C)CCCN)c2ncccc2c1Sc1ccc(Cl)cc1 (stereo unspecified) | 1.77 µM | 3.42 µM | 1.65 µM | 3.09 µM | 1.65 µM | 3.08 µM | 2.01 µM | 4.06 µM | 2.01 µM | 3.5 µM | 1.75 µM | 3.29 µM | 1.63 µM | 3.15 µM |  |  | 1.7 µM | 3.07 µM |  | 
CCN(CC)c1ccc(/C=C/C=C(/C#N)C(N)=S)cc1 | 3.85 µM | > 100 µM | 5.21 µM | > 100 µM | > 100 µM | > 100 µM | 27.6 µM | > 100 µM | 28.7 µM | > 100 µM | 5.37 µM | 32.3 µM | 5.05 µM | 34.4 µM | 2.83 µM | 18.9 µM |  |  |  | 
CC(=O)/C(=C\c1c(-c2ccccc2)[nH]c2ccccc12)S(=O)(=O)c1ccccc1 | 0.513 µM | 5.62 µM | 2.44 µM | 15 µM | 2.81 µM | 19.4 µM | 2.33 µM | 10.2 µM | 3.44 µM | > 41.1 µM | 1.18 µM | 3.03 µM | 2.23 µM | 8.58 µM | 0.406 µM | 2.43 µM | 1.25 µM | 2.8 µM |  | 
O=c1cc(O)c2c(O)cc(O)cc2o1 |  | > 100 µM |  | > 100 µM |  |  |  | > 100 µM |  | > 100 µM |  | > 100 µM |  | > 100 µM |  | > 100 µM |  | > 100 µM | > 100 µM | 
CC(=O)NC1=C(Sc2ccc(Cl)cc2)C(=O)c2ccccc2C1=O |  | 6.31 µM |  | 11.7 µM |  | 29.1 µM |  | 20.9 µM |  | 13.5 µM |  |  |  | 17.3 µM |  | 5.41 µM |  | 4.65 µM |  | 
CCCC#CCOC(=O)c1cc([N+](=O)[O-])cc([N+](=O)[O-])c1 |  | > 100 µM |  | > 100 µM |  | > 100 µM |  | > 100 µM |  | > 100 µM |  | > 100 µM |  | > 100 µM |  | > 100 µM |  |  | > 100 µM | 
CC(C)(C)OC(=O)NCCCCCCCCCCn1c2c(c3ccccc3c1=O)C(=O)c1ccccc1-2 | > 100 µM | > 100 µM | > 100 µM | > 100 µM | 40.3 µM | > 100 µM | 30.9 µM | > 100 µM | 20.3 µM | 52.1 µM | 29.1 µM | > 100 µM | > 100 µM | > 100 µM | 27.4 µM | > 100 µM | 13 µM | 37.4 µM |  | 
COc1cc2c(cc1OC)[C@@H]([C@H](O)c1ccccc1)NCC2 |  |  |  |  |  | > 100 µM |  | > 100 µM |  | > 100 µM |  | > 100 µM |  | > 100 µM |  | > 100 µM |  | > 100 µM | > 100 µM | 
Cc1ccc2c(CC(=O)O)cc(=O)oc2c1 |  |  |  |  |  | > 100 µM |  | > 100 µM |  | > 100 µM |  | > 100 µM |  |  |  | > 100 µM |  | > 100 µM |  | 
O=C(CC1C(=O)Nc2ccccc2S1(=O)=O)Nc1cccc(Cl)c1 (stereo unspecified) |  |  |  |  |  |  |  | 54.3 µM |  | 46.6 µM |  |  |  | 50 µM |  | 38.4 µM |  | 31.7 µM | 40.7 µM | 
C[n+]1c(/C=C/c2ccc(/C=N/NC(=O)c3ccc(C(=O)N/N=C/c4ccc(/C=C/c5cn6ccccc6[n+]5C)cc4)cc3)cc2)cn2ccccc21 |  | > 100 µM |  | > 100 µM |  | > 100 µM |  | > 100 µM |  | > 100 µM |  | > 100 µM |  | > 100 µM |  |  |  |  |  | 
O=C(Nc1cccc(-n2cc(-c3ccncc3)c(-c3ccc(O)c(Cl)c3)n2)c1)c1ccc(Cl)c(Cl)c1 | 5.26 µM | 65.5 µM | 5.16 µM | > 100 µM | 42.3 µM | > 100 µM | 5.94 µM | 86.5 µM | 43.2 µM | > 100 µM | 20.3 µM | > 100 µM | 4.12 µM | 31.3 µM | 3.48 µM | > 100 µM |  |  | > 100 µM | 3.57 µM
COc1ccc(-c2nnc(Nc3nc(O)c(C4=c5cc(F)ccc5=NC4=O)s3)o2)cc1 | 49.7 µM | > 100 µM | 32.4 µM | > 100 µM | > 100 µM | > 100 µM | 29.5 µM | > 100 µM | 56.3 µM | > 100 µM | 18.2 µM | 43.7 µM | > 100 µM | > 100 µM | 37.1 µM | > 100 µM | 65.8 µM | > 100 µM |  | 
COc1ccc(/C(=N/O)c2cc(OC)c(OC)c(OC)c2)c(OC)c1N |  |  | 3.97 µM | > 100 µM | 8.51 µM | > 100 µM | 3.02 µM | > 100 µM | > 100 µM | > 100 µM | 6.55 µM | > 100 µM |  |  | 3.14 µM | > 100 µM |  |  |  | 
CCc1ncnc2cc(OCC3CO3)c(OC)cc12 (stereo unspecified) |  | > 100 µM |  | > 100 µM |  | 73.6 µM |  | 30.3 µM |  | 69.5 µM |  | 38.7 µM |  | 52.9 µM |  | > 80.3 µM |  | 18.7 µM |  | 
O=C1c2c(c3c4ccccc4[nH]c3c3[nH]c4ccccc4c23)C(=O)N1Cc1ccccc1 |  |  |  |  |  | 9.49 µM |  | 13.3 µM |  | 11.6 µM |  | 14.8 µM |  | 13.3 µM |  | 14.2 µM |  | 4.12 µM |  | 
CCN1C(=O)N(CC)C2C1NN=c1s/c(=C\c3cccc([N+](=O)[O-])c3)c(=O)n12 (stereo unspecified) | 0.0443 µM | 0.703 µM | 0.0853 µM | > 100 µM |  |  | 0.0423 µM | > 100 µM | > 100 µM | > 100 µM | 0.104 µM | > 100 µM | > 100 µM | > 100 µM | 0.0411 µM | > 100 µM | 0.0708 µM | > 100 µM | > 100 µM | 0.0471 µM
